# Active and inactive are the calls of the source.
# Tests used:
# [1] = tested on: Vero; assay: cells; format: functional, cell-based; conditions: Chlorocebus sabaeus
# [2] = tested on: Vero; assay: cells; format: functional; conditions: Chlorocebus sabaeus
# [3] = viability of uninfected HEp-2 cells – cell-based, HTS, cytotoxicity control for RSV inhibitor project, dose response (AID 2410); format: functional; conditions: human respiratory syncytial virus
# [4] = tested on: HeLa; assay: ATP-based viability loss in HeLa cells – cell-based, CellTiter-Glo luminescence, cherry-pick samples, cytotoxicity control for MITF activator project, dose response (AID 540259); format: functional; conditions: Homo sapiens
# [5] = target: Cytochrome P450 2C9 (Homo sapiens, UniProt P11712)
# [6] = target: Cytochrome P450 3A4 (Homo sapiens, UniProt P08684);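 further: CYP3A4 tested as one member of a cytochrome P450 panel screen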
# [7] = target: T1, Cytochrome P450 2D6 (Homo sapiens, UniProt P10635);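 further: CYP2D6 member of a cytochrome P450 panel assay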
# [8] = Luminescence Cell-Based Dose Response to Identify Activators of Luciferase Translation or Activity in H4-C Neuroglioblastoma Cells. [Related pubchem assays: 1829 (Project Summary), 1814 (Primary HTS)]; format: functional
# [9] = Luminescence Cell-Based Dose Response HTS to Identify Activators of Luciferase Translation or Activity in H4 […] Cells. [Related pubchem assays: 1829 (Project Summary), 1814 (Primary HTS)]; format: functional
# [10] = tested on: H4; assay: Luminescence Cell-Based Dose Response HTS to Identify Activators of 5'UTR Stem-Loop Driven Prion Protein mRNA Translation in H4 Neuroglioblastoma Cells. [Related pubchem assays: 1829 (Project Summary), 1814 (Primary HTS)]; format: functional; conditions: Homo sapiens
# [11] = Luminescence Cell-Based Dose Response to Identify Activators of 5'UTR Stem-Loop Driven Prion Protein mRNA Translation in H4-C Neuroglioblastoma Cells. [Related pubchem assays: 1829 (Project Summary), 1814 (Primary HTS)]; format: functional
# [12] = Luminescence Cell-Based Dose Confirmation to Identify Activators of 5'UTR Stem-Loop Driven Alpha-Synuclein mRNA Translation in H4 Neuroglioblastoma Cells. [Related pubchem assays: 1829 (Project Summary), 1814 (Primary HTS)]; format: functional
# [13] = tested on: A-375; assay: MITF: Counter assay: A375 proliferation Measured in Cell-Based System Using Plate Reader - 2084-03_Inhibitor_Dose_DryPowder_Activity. [Related pubchem assays (depositor defined):AID488944]; format: functional; conditions: Homo sapiens
# [14] = tested on: A-375; assay: proliferation inhibition in MITF-low A375 cells – cell-based, cherry-pick samples, set 2, counter-screen for MITF modulator project, dose response (AID 540335); format: functional; conditions: Homo sapiens
# [15] = target: T2, Nuclear receptor subfamily 0 group B member 1 (Homo sapiens, UniProt P51843); assay: Luminescence-based cell-based high throughput dose response assay for inhibitors of the orphan nuclear receptor subfamily 0, group B, member 1 (DAX1; NR0B1). [Related pubchem assays (depositor defined):AID504766, AID504790]; format: functional
# T2 sequence (P51843 whole entry): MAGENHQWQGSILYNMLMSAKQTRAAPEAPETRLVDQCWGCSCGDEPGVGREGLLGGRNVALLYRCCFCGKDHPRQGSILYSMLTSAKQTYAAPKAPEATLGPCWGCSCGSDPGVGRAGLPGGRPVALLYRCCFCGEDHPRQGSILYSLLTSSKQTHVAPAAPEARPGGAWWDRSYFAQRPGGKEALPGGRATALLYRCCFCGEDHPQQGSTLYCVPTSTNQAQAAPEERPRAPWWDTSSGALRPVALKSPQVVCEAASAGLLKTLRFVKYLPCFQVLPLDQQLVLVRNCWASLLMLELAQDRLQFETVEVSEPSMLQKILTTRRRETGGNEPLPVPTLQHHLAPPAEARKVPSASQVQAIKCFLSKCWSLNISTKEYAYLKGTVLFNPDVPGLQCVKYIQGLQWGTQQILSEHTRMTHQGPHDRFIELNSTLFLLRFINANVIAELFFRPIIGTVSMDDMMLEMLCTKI
# [16] = tested on: HEK293; assay: cells; format: functional, cell-based; conditions: Homo sapiens
# [17] = Luminescence Cell-Based Dose Confirmation HTS to Identify Activators of 5'UTR Stem-Loop Driven Alpha-Synuclein mRNA Translation in H4 Neuroglioblastoma Cells. [Related pubchem assays: 1829 (Project Summary), 1814 (Primary HTS)]; format: functional
# [18] = alpha-synuclein stem-loop luciferase translation blockers – H4 neuroglioma cells, luminescence, confirmation (AID 1988); format: functional, cell-based
# [19] = Luminescence Cell-Based Dose Response HTS to Identify Inhibitors of 5'UTR Stem-Loop Driven Prion Protein mRNA Translation in H4 Neuroglioblastoma Cells. [Related pubchem assays: 1827 (Project Summary), 1813 (Primary HTS)]; format: functional
# [20] = luciferase reporter signal suppression in cells – H4 neuroglioma cells, luminescence, dose response (AID 1990); format: functional, cell-based
# [21] = target: Cytochrome P450 2C19 (Homo sapiens, UniProt P33261); assay: Cytochrome panel assay with activity outcomes. Panel member name: p450-cyp2c19 Compounds with AC50 equal or less than 10 uM are considered active; format: functional; conditions: read-out: AC50
# [22] = target: T3, RNA-binding protein pos-1 (Caenorhabditis elegans, UniProt G5EF15); assay: disruptors of C. elegans POS-1 RNA interaction – biochemical, fluorescence polarization, dose response (AID 1964);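 further: purified POS-1 fused to maltose binding protein made in E. coli; potency of compounds blocking POS-1 binding to fluorescent RNA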
# T3 sequence (G5EF15 whole entry): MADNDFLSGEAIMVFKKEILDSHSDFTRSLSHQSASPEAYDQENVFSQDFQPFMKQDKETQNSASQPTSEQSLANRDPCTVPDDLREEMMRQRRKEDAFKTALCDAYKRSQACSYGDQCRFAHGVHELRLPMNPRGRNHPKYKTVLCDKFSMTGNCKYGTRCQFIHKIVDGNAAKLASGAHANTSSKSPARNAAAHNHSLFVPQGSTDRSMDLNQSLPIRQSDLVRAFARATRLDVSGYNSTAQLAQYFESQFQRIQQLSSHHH
# [23] = target: Keap1/Nrf2 (Homo sapiens, UniProt Q14145); assay: disruptors of Keap1 binding to Nrf2 peptide – biochemical, fluorescence polarization, cherry-picked samples, dose response (AID 588683)
# [24] = target: T4, Zinc finger protein mex-5 (Caenorhabditis elegans, UniProt Q9XUB2); assay: potency of MEX-5 RNA-binding blockers – biochemical, C. elegans, fluorescence polarization, dose response (AID 1960)
# T4 sequence (Q9XUB2 whole entry): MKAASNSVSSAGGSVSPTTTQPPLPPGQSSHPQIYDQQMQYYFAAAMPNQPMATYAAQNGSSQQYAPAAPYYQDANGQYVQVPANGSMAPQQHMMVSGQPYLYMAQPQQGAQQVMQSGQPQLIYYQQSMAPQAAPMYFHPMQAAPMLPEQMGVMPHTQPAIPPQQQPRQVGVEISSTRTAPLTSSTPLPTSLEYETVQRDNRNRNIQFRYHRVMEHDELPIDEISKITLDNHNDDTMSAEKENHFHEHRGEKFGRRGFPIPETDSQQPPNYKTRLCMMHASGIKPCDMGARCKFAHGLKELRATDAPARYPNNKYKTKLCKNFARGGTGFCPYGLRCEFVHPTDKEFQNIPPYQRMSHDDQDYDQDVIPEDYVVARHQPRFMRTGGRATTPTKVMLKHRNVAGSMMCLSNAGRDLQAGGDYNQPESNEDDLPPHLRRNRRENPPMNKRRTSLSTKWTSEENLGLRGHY
# [25] = target: T1, Cytochrome P450 2D6; remark: listed apart in the source
# [26] = target: T5, Cytochrome P450 1A2 (Homo sapiens, UniProt P05177);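 further: PubChem cytochrome P450 panel assay, CYP1A2 panel member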
# T5 sequence (P05177 whole entry): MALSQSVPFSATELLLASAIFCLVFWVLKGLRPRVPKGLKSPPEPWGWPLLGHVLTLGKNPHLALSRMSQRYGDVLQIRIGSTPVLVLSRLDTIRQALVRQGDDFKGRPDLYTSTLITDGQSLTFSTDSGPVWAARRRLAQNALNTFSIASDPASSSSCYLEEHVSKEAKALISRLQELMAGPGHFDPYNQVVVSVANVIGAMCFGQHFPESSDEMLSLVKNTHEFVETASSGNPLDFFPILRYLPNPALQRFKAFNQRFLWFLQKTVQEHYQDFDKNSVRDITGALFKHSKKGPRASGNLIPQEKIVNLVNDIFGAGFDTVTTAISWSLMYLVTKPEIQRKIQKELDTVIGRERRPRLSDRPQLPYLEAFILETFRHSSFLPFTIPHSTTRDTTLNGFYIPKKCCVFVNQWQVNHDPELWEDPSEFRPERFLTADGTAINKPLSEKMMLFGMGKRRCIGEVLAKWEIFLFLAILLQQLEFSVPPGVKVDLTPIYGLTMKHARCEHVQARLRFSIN
# [27] = CellTiter-Glo luminescence survival assay, SW480 colon tumor line, concentration-response curve, half-maximal inhibitory concentration (AID 1117338); format: functional
# [28] = cytotoxicity toward HCT116 cells – cell-based, CellTiter-Glo luminescence, IC50, dose response (AID 1117332); format: functional; conditions: HCT-116
# [29] = SNU-C1 cell viability reduction, dose response, CellTiter-Glo luminescence (AID 1117323); format: functional, cell-based
# [30] = cytotoxicity toward HT-29 cells – cell-based, CellTiter-Glo luminescence, IC50, dose response (AID 1117330); format: functional
# [31] = rise of 4N DNA cells, HeLa – IC50, dose response (AID 1117351); format: functional, cell-based
# [32] = RKO cell viability reduction, dose response, CellTiter-Glo luminescence (AID 1117322); format: functional
# [33] = Reduced DLD-1 viability, concentration-response, CellTiter-Glo luminescence (AID 1117352); format: functional
# [34] = rise of 2N DNA cells, HeLa – IC50, dose response (AID 1117349); format: functional, cell-based
# [35] = HCT116 cell viability decrease, GSK3B pretreatment – CellTiter-Glo, IC50, dose response (AID 1117339); format: functional; conditions: HCT-116
# T1 sequence (P10635 whole entry): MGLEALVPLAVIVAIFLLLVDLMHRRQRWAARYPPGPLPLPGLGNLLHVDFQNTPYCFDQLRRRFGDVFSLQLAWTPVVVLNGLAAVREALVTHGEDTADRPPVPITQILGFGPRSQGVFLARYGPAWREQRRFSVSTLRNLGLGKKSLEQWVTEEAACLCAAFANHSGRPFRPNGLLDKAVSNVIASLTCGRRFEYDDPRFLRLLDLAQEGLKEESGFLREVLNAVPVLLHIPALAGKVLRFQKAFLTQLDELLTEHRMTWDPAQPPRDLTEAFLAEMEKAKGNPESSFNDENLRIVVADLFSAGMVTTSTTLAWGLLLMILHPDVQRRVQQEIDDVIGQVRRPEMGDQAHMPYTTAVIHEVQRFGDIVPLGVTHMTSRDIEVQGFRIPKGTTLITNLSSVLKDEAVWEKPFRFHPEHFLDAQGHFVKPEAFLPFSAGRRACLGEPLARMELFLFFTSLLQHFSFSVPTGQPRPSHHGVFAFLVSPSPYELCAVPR
# Cytochrome P450 3A4, sequence (P08684 whole entry): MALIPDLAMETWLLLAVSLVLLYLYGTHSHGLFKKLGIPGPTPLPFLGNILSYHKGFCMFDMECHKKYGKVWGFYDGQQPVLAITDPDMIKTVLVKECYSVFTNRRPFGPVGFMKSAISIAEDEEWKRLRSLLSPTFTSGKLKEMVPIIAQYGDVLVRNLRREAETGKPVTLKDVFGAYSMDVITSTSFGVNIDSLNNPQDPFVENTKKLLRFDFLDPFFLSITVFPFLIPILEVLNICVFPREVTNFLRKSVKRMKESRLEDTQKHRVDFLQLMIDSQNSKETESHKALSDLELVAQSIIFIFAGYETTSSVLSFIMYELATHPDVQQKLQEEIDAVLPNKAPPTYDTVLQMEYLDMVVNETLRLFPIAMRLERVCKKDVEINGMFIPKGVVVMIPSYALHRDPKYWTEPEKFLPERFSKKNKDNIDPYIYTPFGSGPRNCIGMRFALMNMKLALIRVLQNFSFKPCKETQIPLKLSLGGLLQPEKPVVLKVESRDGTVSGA
# Cytochrome P450 2C9, sequence (P11712 whole entry): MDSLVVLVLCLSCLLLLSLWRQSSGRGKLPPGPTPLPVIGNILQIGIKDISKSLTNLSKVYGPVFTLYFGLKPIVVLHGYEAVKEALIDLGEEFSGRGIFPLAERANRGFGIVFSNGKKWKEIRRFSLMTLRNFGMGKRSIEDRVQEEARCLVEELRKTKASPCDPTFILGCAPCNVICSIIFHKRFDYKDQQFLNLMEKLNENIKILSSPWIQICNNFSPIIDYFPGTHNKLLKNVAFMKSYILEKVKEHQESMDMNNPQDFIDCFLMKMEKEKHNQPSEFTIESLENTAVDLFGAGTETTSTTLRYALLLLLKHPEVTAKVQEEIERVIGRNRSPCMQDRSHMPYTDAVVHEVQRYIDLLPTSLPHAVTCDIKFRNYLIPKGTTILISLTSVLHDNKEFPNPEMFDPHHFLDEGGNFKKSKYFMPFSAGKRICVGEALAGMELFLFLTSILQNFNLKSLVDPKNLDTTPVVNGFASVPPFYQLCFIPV
# Keap1/Nrf2, sequence (Q16236 whole entry): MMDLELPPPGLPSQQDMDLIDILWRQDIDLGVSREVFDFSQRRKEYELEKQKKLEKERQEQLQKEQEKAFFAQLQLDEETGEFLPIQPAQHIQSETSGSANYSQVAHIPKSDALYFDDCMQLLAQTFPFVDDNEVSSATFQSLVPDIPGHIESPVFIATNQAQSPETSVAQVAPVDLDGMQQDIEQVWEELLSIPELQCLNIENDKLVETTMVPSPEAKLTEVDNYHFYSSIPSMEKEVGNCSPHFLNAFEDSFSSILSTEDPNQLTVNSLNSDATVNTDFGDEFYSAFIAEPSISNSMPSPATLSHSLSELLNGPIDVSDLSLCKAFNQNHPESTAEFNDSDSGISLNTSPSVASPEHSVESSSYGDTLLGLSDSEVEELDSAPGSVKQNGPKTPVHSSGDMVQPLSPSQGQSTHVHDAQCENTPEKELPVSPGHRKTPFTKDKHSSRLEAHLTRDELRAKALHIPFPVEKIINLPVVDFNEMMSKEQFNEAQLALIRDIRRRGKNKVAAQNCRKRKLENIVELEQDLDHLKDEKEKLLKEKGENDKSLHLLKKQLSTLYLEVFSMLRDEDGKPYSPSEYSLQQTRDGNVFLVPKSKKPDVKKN
# Keap1/Nrf2, sequence (Q14145 whole entry): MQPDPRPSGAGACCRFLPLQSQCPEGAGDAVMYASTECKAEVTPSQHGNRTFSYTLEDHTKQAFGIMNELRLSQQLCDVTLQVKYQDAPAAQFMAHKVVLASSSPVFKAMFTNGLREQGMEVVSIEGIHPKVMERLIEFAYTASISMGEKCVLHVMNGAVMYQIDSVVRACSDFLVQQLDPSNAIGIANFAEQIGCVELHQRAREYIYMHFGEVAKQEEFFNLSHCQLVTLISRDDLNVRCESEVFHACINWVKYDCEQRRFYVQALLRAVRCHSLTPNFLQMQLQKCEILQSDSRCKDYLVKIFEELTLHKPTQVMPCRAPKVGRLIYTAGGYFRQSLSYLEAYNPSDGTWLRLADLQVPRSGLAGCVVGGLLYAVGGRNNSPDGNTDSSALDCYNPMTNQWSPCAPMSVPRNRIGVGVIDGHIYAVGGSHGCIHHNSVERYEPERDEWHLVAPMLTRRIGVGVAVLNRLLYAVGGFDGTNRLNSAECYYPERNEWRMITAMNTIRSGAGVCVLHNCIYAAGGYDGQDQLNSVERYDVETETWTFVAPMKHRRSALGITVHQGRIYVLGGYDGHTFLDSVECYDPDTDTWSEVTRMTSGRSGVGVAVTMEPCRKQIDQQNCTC
# Cytochrome P450 2C19, sequence (P33261 whole entry, the tested form may be a part): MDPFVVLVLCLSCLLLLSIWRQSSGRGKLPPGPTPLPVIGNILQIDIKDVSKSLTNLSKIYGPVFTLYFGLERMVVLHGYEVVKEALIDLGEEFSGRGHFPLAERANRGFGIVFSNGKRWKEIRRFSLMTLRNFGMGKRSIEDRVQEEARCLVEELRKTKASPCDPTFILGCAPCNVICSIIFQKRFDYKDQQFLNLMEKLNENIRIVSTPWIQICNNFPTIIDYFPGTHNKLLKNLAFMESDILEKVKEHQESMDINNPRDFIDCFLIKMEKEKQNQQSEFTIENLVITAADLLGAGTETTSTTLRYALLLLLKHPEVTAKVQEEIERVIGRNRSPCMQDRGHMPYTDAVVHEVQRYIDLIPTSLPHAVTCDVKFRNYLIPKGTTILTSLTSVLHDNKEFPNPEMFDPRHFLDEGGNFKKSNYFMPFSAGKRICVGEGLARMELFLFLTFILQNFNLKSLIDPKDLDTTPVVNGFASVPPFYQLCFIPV
smiles,measurement,setting,value
C#CCn1c(S(=O)(=O)Cc2ccc(C)cc2)nc(-c2ccccc2)c1-c1ccccc1,IC50,[1],3.84 µM (active)
same,CC50,[2],22.6 µM (active)
C/C(=N\OC(=O)c1cccc(C(F)(F)F)c1)c1sc(-c2ccccc2)nc1C,CC50,[3],30.8 µM (active)
same,AC50,[4],174 µM (active)
CCOC(=O)C1C(=O)C=C(/C=C/c2ccccc2)CC1c1ccc(Cl)cc1 (centres undefined),AC50,[5],1.41 µM (inconclusive)
same,AC50,[6],inconclusive
same,AC50,[7],7.08 µM (inconclusive)
Cc1ccc(NC(=O)Nc2ccc3oc(C)nc3c2)cc1,EC50,[8],0.346 µM (active)
same,EC50,[9],< 0.1 µM (active)
same,AC50,[4],104 µM (active)
same,EC50,[10],> 120 µM (not active)
same,EC50,[11],0.192 µM (active)
same,EC50,[12],0.216 µM (active)
CCOC(=O)c1ccc(NC(=O)CC2SCCNC2=O)cc1 (centres undefined),AC50,[13],> 35 µM (active)
same,AC50,[14],> 35 µM (active)
COc1ccc(C(=O)C[n+]2ccc3ccccc3c2C)cc1,IC50,[15],> 67.5 µM (inactive)
same,EC50,[8],0.402 µM (active)
same,EC50,[9],0.235 µM (active)
same,IC50,[16],> 67.5 µM (inactive)
same,EC50,[10],> 120 µM (not active)
same,EC50,[11],0.646 µM (active)
same,EC50,[12],0.375 µM (active)
same,EC50,[17],< 0.1 µM (active)
O=C(CSC(=S)N1CCCCC1)c1c(F)cccc1F,IC50,[15],> 67.5 µM (inactive)
same,IC50,[16],> 67.5 µM (inactive)
Cc1cc(C)c(-c2csc(NC(=O)/C=C/c3cccs3)n2)c(C)c1,EC50,[18],9.05 µM (active)
same,EC50,[19],21.5 µM (active)
same,IC50,[1],23.2 µM (active)
same,CC50,[2],> 25 µM (active)
same,EC50,[20],> 120 µM (not active)
S=C(Nc1ccc(Cl)cc1)NC1CC2CCCC(C1)N2C1CCCC1 (centres undefined),AC50,[21],22.4 µM (inconclusive)
same,AC50,[6],inconclusive
CC(C)c1nnc(N2C(=O)C(O)=C(C(=O)c3cccs3)C2c2ccccc2)s1 (centres undefined),EC50,[22],33.9 µM (inconclusive)
same,AC50,[23],13.4 µM (active)
same,EC50,[24],4.38 µM (inconclusive)
CC(C)OC(=O)/C(=C\C=C\c1ccccc1)NC(=O)c1ccccc1,AC50,[25],inconclusive
same,AC50,[26],3.55 µM (inconclusive)
same,AC50,[5],2.82 µM (inconclusive)
COc1cccc2c1C(=O)c1c(O)c3c(c(O)c1C2=O)C[C@@](O)(C(C)=O)C[C@@H]3O[C@H]1C[C@H](N)[C@H](O)[C@H](C)O1 [DAUNORUBICIN],IC50,[27],1.47 µM (active)
same,IC50,[28],0.0509 µM (active)
same,IC50,[29],0.338 µM (active)
same,IC50,[30],0.648 µM (active)
same,IC50,[31],0.0464 µM (active)
same,AC50,[25],inactive
same,IC50,[32],0.118 µM (active)
same,IC50,[33],0.188 µM (active)
same,AC50,[26],31.6 µM (inconclusive)
same,IC50,[34],0.0102 µM (active)
same,IC50,[35],0.0554 µM (active)

# — ChEMBL document CHEMBL1201862, “PubChem BioAssay data set” (2004)
